The text below walks through data of the NIST ThermoML archive (doi:10.1016/j.fluid.2006.10.004).

For data set [1] the following is noted: 293.15 K; 101.33 kPa; Liquid.
Data set [2] is described as follows: refractive index (Na D-line) (dimensionless). The note with it: 293.15 K; 101.33 kPa; Liquid; Standard Abbe refractometry.

± gives the expanded uncertainty stated by the source.

As a reminder, the mass density is mass per unit of volume. By refractive index is commonly meant the speed of light in vacuum divided by its phase velocity in the sample. `CC(C)CC(=O)CC(C)C` [2,6-dimethyl-4-heptanone]: the mass density in data set [1] worked out at 804.8 ± 1.3 kg/m3. Moreover, the refractive index in data set [2] is listed as 1.4155 ± 0.0008.

In the case of `CC(=O)CCC(C)C` [5-methyl-2-hexanone], the mass density in data set [1] stood at 887.5 ± 1 kg/m3. Also, in data set [2], the refractive index came out at 1.4074 ± 0.0008.

For the compound `CCC(=O)CCC(C)C` [6-methyl-3-heptanone], in data set [1], the mass density stood at 822.7 ± 1.2 kg/m3. The refractive index in data set [2] is given as 1.4194 ± 0.0008.

Turning to `CCC(=O)O` [propanoic acid], the mass density in data set [1] was 992.7 ± 0.6 kg/m3. In addition, the refractive index in data set [2] stood at 1.3811 ± 0.0008.
